Measured values published in patent US6673793B2, “Oxazinoquinolones useful for the treatment of viral infections” (Pharmacia & Upjohn Co., priority 2000, dated 2004).

Experiments:
CMV polymerase = biological target: T1, CMV polymerase (Human cytomegalovirus, UniProt P08546); assay: HCMV polymerase assay, scintillation proximity assay (SPA), modified version; format: biochemical; settings: modified HCMV polymerase SPA assay: compounds diluted in 100% DMSO, 4.5 mM DTT in polymerase buffer, different lot of CMV polymerase; read-out: CMV polymerase IC50
T1 construct: made in house; host or cells: recombinant baculovirus-infected SF-9 cells
T1 sequence (P08546 whole entry): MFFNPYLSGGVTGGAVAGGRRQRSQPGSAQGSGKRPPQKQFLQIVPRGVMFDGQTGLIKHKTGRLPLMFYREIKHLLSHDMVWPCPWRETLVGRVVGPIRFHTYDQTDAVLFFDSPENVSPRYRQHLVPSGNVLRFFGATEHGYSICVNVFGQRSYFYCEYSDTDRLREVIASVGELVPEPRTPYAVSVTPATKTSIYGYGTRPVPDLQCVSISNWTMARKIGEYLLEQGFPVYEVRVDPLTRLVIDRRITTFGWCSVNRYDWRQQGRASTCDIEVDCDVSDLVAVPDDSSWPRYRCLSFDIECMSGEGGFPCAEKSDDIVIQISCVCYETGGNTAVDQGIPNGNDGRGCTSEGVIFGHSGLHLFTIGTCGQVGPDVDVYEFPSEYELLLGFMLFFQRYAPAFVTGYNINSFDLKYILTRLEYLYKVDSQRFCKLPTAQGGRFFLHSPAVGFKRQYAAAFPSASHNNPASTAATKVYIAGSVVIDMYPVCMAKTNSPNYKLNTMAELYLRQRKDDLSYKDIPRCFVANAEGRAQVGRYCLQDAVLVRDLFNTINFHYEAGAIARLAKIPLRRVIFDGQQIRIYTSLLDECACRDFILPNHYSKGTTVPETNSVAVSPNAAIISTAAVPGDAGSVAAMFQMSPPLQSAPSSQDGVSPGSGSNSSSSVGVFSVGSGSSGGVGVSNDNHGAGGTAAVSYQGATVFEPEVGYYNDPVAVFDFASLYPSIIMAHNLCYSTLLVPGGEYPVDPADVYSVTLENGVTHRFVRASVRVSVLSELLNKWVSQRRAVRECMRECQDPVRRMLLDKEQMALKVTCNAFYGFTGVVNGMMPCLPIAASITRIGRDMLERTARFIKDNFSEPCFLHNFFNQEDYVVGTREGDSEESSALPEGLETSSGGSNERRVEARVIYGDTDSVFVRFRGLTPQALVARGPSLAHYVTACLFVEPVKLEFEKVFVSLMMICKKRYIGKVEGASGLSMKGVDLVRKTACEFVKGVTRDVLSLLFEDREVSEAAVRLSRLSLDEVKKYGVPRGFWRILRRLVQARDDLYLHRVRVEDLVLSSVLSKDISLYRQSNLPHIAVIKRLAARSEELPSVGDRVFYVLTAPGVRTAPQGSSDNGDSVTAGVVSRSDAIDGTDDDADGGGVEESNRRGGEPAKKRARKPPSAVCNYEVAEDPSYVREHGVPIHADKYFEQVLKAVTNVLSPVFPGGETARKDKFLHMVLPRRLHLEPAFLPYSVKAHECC
Description: The HCMV polymerase assay is performed using a scintillation proximity assay (SPA) as described in several references, such as N. D. Cook, et al., Pharmaceutical Manufacturing International, pages 49-53 (1992); K. Takeuchi, Laboratory Practice, September issue (1992); U.S. Pat. No. 4,568,649 (1986); which are incorporated by reference herein. Reactions are performed in 96-well plates. The assay is conducted in 100 μl volume with 5.4 mM HEPES (pH 7.5), 11.7 mM KCl, 4.5 mM MgCl2, 0.36 mg/ml BSA, and 90 nM ^3H-dTTP. Assays are run with and without CHAPS, (3-[(3-Cholamidopropyl)-dimethylammonio]-1-propane-sulfonate) at a final concentration of 2 mM. HCMV polymerase is diluted in enzyme dilution buffer containing 50% glycerol, 250 mM NaCl, 10 mM HEPES (pH 7.5), 100 μg/ml BSA, and 0.01% sodium azide. The HCMV polymerase, which is expressed in recombinant baculovirus-infected SF-9 cells and purified according to literature procedures, is added at 10% (or 10 μl) of the final reaction volume, i.e., 100 μl. Compounds are diluted in 50% DMSO and 10 μl are added to each well. Control wells contain an equivalent concentration of DMSO. Unless noted otherwise, reactions are initiated via the addition of 6 nM biotinylated poly(dA)-oligo(dT) template/primer to reaction mixtures containing the enzyme, substrate, and compounds of interest. Plates are incubated in a 25 C. or 37 C. H2O bath and terminated via the addition of 40 μl/reaction of 0.5 M EDTA (pH 8) per well. Reactions are terminated within the time-frame during which substrate incorporation is linear and varied depending upon the enzyme and conditions used, i.e., 30 min. for HCMV polymerase. Ten μl of streptavidin-SPA beads (20 mg/ml in PBS/10% glycerol) are added following termination of the reaction. Plates are incubated 10 min. at 37 C., then equilibrated to room temperature, and counted on a Packard Topcount. Linear regressions are performed and IC50's are calculated using computer software.
A modified version of the above HCMV polymerase assay is performed as described above, but with the following changes: Compounds are diluted in 100% DMSO until final dilution into assay buffer. In the previous assay, compounds are diluted in 50% DMSO. 4.5 mM dithiotherotol (DTT) is added to the polymerase buffer.

| melting point | IC50 (CMV polymerase) [nM] | Structure (SMILES) |
| --- | --- | --- |
| 147 to 149 °C | 750 | COCOCC1(COCOC)Cn2cc(C(=O)NCc3ccc(Cl)cc3)c(=O)c3cc(CN4CCOCC4)cc(c32)O1 [Example 51, N-(4-Chlorobenzyl)-2,2-bis[(methoxymethoxy)methyl]-9-(morpholin-4-ylmethyl)-7-oxo-2,3-dihydro-7H-[1,4]oxazino[2,3,4-ij]quinoline-6-carboxamide] |
| 230 to 233 °C | 810 | O=C(NCc1ccc(Cl)cc1)c1cn2c3c(cc(CN4CCOCC4)cc3c1=O)OC(CO)(CO)C2 [Example 52, N-(4-Chlorobenzyl)-2,2-bis(hydroxymethyl)-9-(morpholin-4-ylmethyl)-7-oxo-2,3-dihydro-7H-[1,4]oxazino[2,3,4-ij]quinoline-6-carboxamide] |
| 147 to 149 °C | 530 | O=C(NCc1ccc(Cl)cc1)c1cn2c3c(cc(CN4CCOCC4)cc3c1=O)OC1(CCSCC1)C2 [Example 53, N-[(4-Chlorophenyl)methyl]-2′,3′,5′,6′-tetrahydro-9-(4-morpholinylmethyl)-7-oxospiro[7H-pyrido[1,2,3-de]-1,4-benzoxazine-2(3H),4′-[4H]thiopyran]-6-carboxamide] |
| 249.5 to 252 °C | 600 | O=C1CCC2(CC1)Cn1cc(C(=O)NCc3ccc(Cl)cc3)c(=O)c3cc(CN4CCOCC4)cc(c31)O2 [Example 54, N-[(4-Chlorophenyl)methyl]-9′-(4-morpholinylmethyl)-4,7′-dioxospiro[cyclohexane-1,2′(3′H)-[7H]pyrido[1,2,3-de][1,4]benzoxazine]-6′-carboxamide] |
| 229 to 234 °C | 410 | O=C(NCc1ccc(Cl)cc1)c1cn2c3c(cc(CN4CCOCC4)cc3c1=O)OC1(CCC(O)CC1)C2 (stereo not drawn) [Example 55, N-[(4-Chlorophenyl)methyl]-4-hydroxy-9′-(4-morpholinylmethyl)-7′-oxospiro[cyclohexane-1,2′(3′H)-[7H]pyrido[1,2,3-de][1,4]benzoxazine]-6′-carboxamide] |
| > 260 °C | 480 | Cn1ccnc1C1Cn2cc(C(=O)NCc3ccc(Cl)cc3)c(=O)c3cc(CN4CCOCC4)cc(c32)O1 (stereo not drawn) [Example 59, N-(4-Chlorobenzyl)-2-(1-methyl-1H-imidazol-2-yl)-9-(morpholin-4-ylmethyl)-7-oxo-2,3-dihydro-7H-[1,4]oxazino[2,3,4-ij]quinoline-6-carboxamide] |
| 220 to 222.5 °C | 460 | O=C(NCc1ccc(Cl)cc1)c1cn2c3c(cc(CN4CCOCC4)cc3c1=O)OC(c1ccco1)C2 (stereo not drawn) [Example 60, N-(4-Chlorobenzyl)-2-(2-furyl)-9-(morpholin-4-ylmethyl)-7-oxo-2,3-dihydro-7H-[1,4]oxazino[2,3,4-ij]quinoline-6-carboxamide] |
| 186.5 to 189 °C | 540 | COCOCc1cccc(C2Cn3cc(C(=O)NCc4ccc(Cl)cc4)c(=O)c4cc(CN5CCOCC5)cc(c43)O2)c1 (stereo not drawn) [Example 61, N-(4-Chlorobenzyl)-2-{3-[(methoxymethoxy)methyl]phenyl}-9-(morpholin-4-ylmethyl)-7-oxo-2,3-dihydro-7H-[1,4]oxazino[2,3,4-ij]quinoline-6-carboxamide] |
| 229 to 233 °C | 380 | O=C(NCc1ccc(Cl)cc1)c1cn2c3c(cc(CN4CCOCC4)cc3c1=O)OC(c1cccc(CO)c1)C2 (stereo not drawn) [Example 62, N-(4-Chlorobenzyl)-2-[3-(hydroxymethyl)phenyl]-9-(morpholin-4-ylmethyl)-7-oxo-2,3-dihydro-7H-[1,4]oxazino[2,3,4-ij]quinoline-6-carboxamide] |
| 213 °C (dec.) | 290 | O=C(NCc1ccc(Cl)cc1)c1cn2c3c(cc(CN4CCOCC4)cc3c1=O)OC(c1cccc(O)c1)C2 (stereo not drawn) [Example 63, N-(4-Chlorobenzyl)-2-(3-hydroxyphenyl)-9-(4-morpholinylmethyl)-7-oxo-2,3-dihydro-7H-[1,4]oxazino[2,3,4-ij]quinoline-6-carboxamide] |
| > 260 °C | 450 | O=C(NCc1ccc(Cl)cc1)c1cn2c3c(cc(CN4CCOCC4)cc3c1=O)OC(c1ccc(O)cc1)C2 (stereo not drawn) [Example 65, N-(4-Chlorobenzyl)-2-(4-hydroxyphenyl)-9-(morpholin-4-ylmethyl)-7-oxo-2,3-dihydro-7H-[1,4]oxazino[2,3,4-ij]quinoline-6-carboxamide] |

The next lines start with the compound.

| Structure (SMILES) | melting point | IC50 (CMV polymerase) [nM] |
| --- | --- | --- |
| O=C(NCc1ccc(Cl)cc1)c1cn2c3c(cc(CN4CCOCC4)cc3c1=O)OC(c1ccc3c(c1)OCCO3)C2 (stereo not drawn) [Example 41, N-(4-Chlorobenzyl)-2-(2,3-dihydro-1,4-benzodioxin-6-yl)-9-(morpholin-4-ylmethyl)-7-oxo-2,3-dihydro-7H-[1,4]oxazino[2,3,4-ij]quinoline-6-carboxamide] | 240 to 243 °C | 440 |
| O=C(NCc1ccc(Cl)cc1)c1cn2c3c(cc(CN4CCOCC4)cc3c1=O)OC(c1cccc3c1OCO3)C2 (stereo not drawn) [Example 42, 2-(1,3-Benzodioxol-4-yl)-N-(4-chlorobenzyl)-9-(morpholin-4-ylmethyl)-7-oxo-2,3-dihydro-7H-[1,4]oxazino[2,3,4-ij]quinoline-6-carboxamide] | 221 to 225 °C (dec.) | 200 |
| COCOc1cc(OCOC)cc(C2Cn3cc(C(=O)NCc4ccc(Cl)cc4)c(=O)c4cc(CN5CCOCC5)cc(c43)O2)c1 (stereo not drawn) [Example 43, 2-[3,5-bis(Methoxymethoxy)phenyl]-N-(4-chlorobenzyl)-9-(morpholin-4-ylmethyl)-7-oxo-2,3-dihydro-7H-[1,4]oxazino[2,3,4-ij]quinoline-6-carboxamide] | 187 to 189 °C | 400 |
| COCOc1cccc(C2Cn3cc(C(=O)NCc4ccc(Cl)cc4)c(=O)c4cc(CN5CCOCC5)cc(c43)O2)c1OCOC (stereo not drawn) [Example 44, 2-[2,3-bis(Methoxymethoxy)phenyl]-N-(4-chlorobenzyl)-9-(morpholin-4-ylmethyl)-7-oxo-2,3-dihydro-7H-[1,4]oxazino[2,3,4-ij]quinoline-6-carboxamide] | 177 to 180 °C | 1040 |
| O=C(NCc1ccc(Cl)cc1)c1cn2c3c(cc(CN4CCOCC4)cc3c1=O)OC(c1ccsc1)C2 (stereo not drawn) [Example 45, N-(4-Chlorobenzyl)-9-(morpholin-4-ylmethyl)-7-oxo-2-thien-3-yl-2,3-dihydro-7H-[1,4]oxazino[2,3,4-ij]quinoline-6-carboxamide] | 241 to 245 °C (dec.) | 410 |
| O=C(NCc1ccc(Cl)cc1)c1cn2c3c(cc(CN4CCOCC4)cc3c1=O)OC1(CCOCC1)C2 [Example 46, N-[(4-Chlorophenyl)methyl]-2,3,5,6-tetrahydro-9′-(4-morpholinylmethyl)-7′-oxospiro[4H-pyran-4,2′(3′H)-[7H]pyrido[1,2,3-de][1,4]benzoxazine]-6′-carboxamide] | 251 to 254 °C | 530 |
| CC(C)(C)OC(=O)N1CCC2(CC1)Cn1cc(C(=O)NCc3ccc(Cl)cc3)c(=O)c3cc(CN4CCOCC4)cc(c31)O2 [Example 47, 1,1-Dimethylethyl 6-[[[(4-chlorophenyl)methyl]amino]carbonyl]-9′-(4-morpholinylmethyl)-7′-oxospiro[piperidine-4,2′(3′H)-[7H]pyrido[1,2,3-de][1,4]benzoxazine]-1-carboxylate] | 213 °C (dec.) | 830 |
| O=C(NCc1ccc(Cl)cc1)c1cn2c3c(cc(CN4CCOCC4)cc3c1=O)OC1(CCNCC1)C2 [Example 48, N-[(4-Chlorophenyl)methyl]-9′-(4-morpholinylmethyl)-7′-oxospiro[piperidine-4,2′(3′H)-[7H]pyrido[1,2,3-de][1,4]benzoxazine]-6′-carboxamide] | 246 to 250 °C (dec.) | 2150 |
| CN1CCC2(CC1)Cn1cc(C(=O)NCc3ccc(Cl)cc3)c(=O)c3cc(CN4CCOCC4)cc(c31)O2 [Example 49, N-[(4-Chlorophenyl)methyl]-1-methyl-9′-(4-morpholinylmethyl)-7′-oxospiro[piperidine-4,2′(3′H)-[7H]pyrido[1,2,3-de][1,4]benzoxazine]-6′-carboxamide] | 234 to 237 °C (dec.) | 2330 |
| O=C(NCc1ccc(Cl)cc1)c1cn2c3c(cc(CN4CCOCC4)cc3c1=O)OC1(CCC3(CC1)OCCO3)C2 [Example 50] | > 260 °C | 1170 |
